Assays:
blackgrass [1] = assay: Test A preemergence; type: in vivo, Alopecurus myosuroides
In short: (§1)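 Loam/sand soil; pre-em directed soil spray at planting, post-em spray at 1–2 leaf (2–10 cm). Compound in non-phytotoxic solvent + surfactant. Greenhouse 10 d; visual injury vs untreated, 0 = no effect, 100 = complete control.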

corn [2] = assay: Test A preemergence; type: in vivo, Zea mays
In short: as §1

foxtail, giant [3] = assay: Test A preemergence; type: in vivo, Setaria faberi
In short: as §1

goosegrass [4] = assay: Test A preemergence; type: in vivo, Eleusine indica
In short: as §1

kochia [5] = assay: Test A preemergence; type: in vivo, Bassia scoparia
In short: as §1

oat, wild [6] = assay: Test A preemergence; type: in vivo, Avena fatua
In short: as §1

pigweed, palmer [7] = assay: Test A preemergence; type: in vivo, Amaranthus palmeri
In short: as §1

ragweed [8] = assay: Test A preemergence; type: in vivo, Ambrosia artemisiifolia
In short: as §1

ryegrass, Italian [9] = assay: Test A preemergence; type: in vivo, Lolium multiflorum
In short: as §1

soybean [10] = assay: Test A preemergence; type: in vivo, Glycine max
In short: as §1

wheat [11] = assay: Test A preemergence; type: in vivo, Triticum aestivum
In short: as §1

blackgrass [12] = assay: Test A postemergence; type: in vivo, Alopecurus myosuroides
In short: as §1

corn [13] = assay: Test A postemergence; type: in vivo, Zea mays; details: postemergence, 10 days, visual injury, 0 to 100 scale (0 no effect, 100 complete control)
In short: as §1

foxtail, giant [14] = assay: Test A postemergence; type: in vivo, Setaria faberi; details: postemergence, 10 days, visual injury, 0 to 100 scale (0 no effect, 100 complete control)
In short: as §1

goosegrass [15] = assay: Test A postemergence; type: in vivo, Eleusine indica; details: postemergence, 10 days, visual injury, 0 to 100 scale (0 no effect, 100 complete control)
In short: as §1

kochia [16] = assay: Test A postemergence; type: in vivo, Bassia scoparia; details: postemergence, 10 days, visual injury, 0 to 100 scale (0 no effect, 100 complete control)
In short: as §1

oat, wild [17] = assay: Test A postemergence; type: in vivo, Avena fatua; details: 500 g ai/ha, postemergence, 10 days, visual injury, 0 to 100 scale (0 no effect, 100 complete control)
In short: as §1

pigweed, palmer [18] = assay: Test A postemergence; type: in vivo, Amaranthus palmeri; details: 500 g ai/ha, postemergence, 10 days, visual injury, 0 to 100 scale (0 no effect, 100 complete control)
In short: as §1

ragweed [19] = assay: Test A postemergence; type: in vivo, Ambrosia artemisiifolia; details: 500 g ai/ha, postemergence, 10 days, visual injury, 0 to 100 scale (0 no effect, 100 complete control)
In short: as §1

ryegrass, Italian [20] = assay: Test A postemergence; type: in vivo, Lolium multiflorum; details: 500 g ai/ha, postemergence, 10 days, visual injury, 0 to 100 scale (0 no effect, 100 complete control)
In short: as §1

soybean [21] = assay: Test A postemergence; type: in vivo, Glycine max; details: 500 g ai/ha, postemergence, 10 days, visual injury, 0 to 100 scale (0 no effect, 100 complete control)
In short: as §1

wheat [22] = assay: Test A postemergence; type: in vivo, Triticum aestivum; details: 500 g ai/ha, postemergence, 10 days, visual injury, 0 to 100 scale (0 no effect, 100 complete control)
In short: as §1

galium = assay: Test A postemergence; type: in vivo, Galium aparine; details: postemergence, 10 days, visual injury, 0 to 100 scale (0 no effect, 100 complete control)
In short: as §1

horseweed = assay: Test A postemergence; type: in vivo, Erigeron canadensis; details: postemergence, 10 days, visual injury, 0 to 100 scale (0 no effect, 100 complete control)
In short: as §1

barnyardgrass = assay: Test B flooded paddy test; type: in vivo, Echinochloa crus-galli; details: 250 g ai/ha, Flood, 13 days, 0 to 100 scale (0 no effect, 100 complete control)
In short: (§2)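 Percent weed or crop control, judged by eye on a 0–100 scale 13 days post-treatment, reflects compound added to a 3 cm flood maintained over 2-leaf plants in the greenhouse. Missing entries are marked with a dash.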

ducksalad = assay: Test B flooded paddy test; type: in vivo, Heteranthera limosa; details: 250 g ai/ha, Flood, 13 days, 0 to 100 scale (0 no effect, 100 complete control)
In short: as §2

rice = assay: Test B flooded paddy test; type: in vivo, Oryza sativa; details: 250 g ai/ha, Flood, 13 days, 0 to 100 scale (0 no effect, 100 complete control)
In short: as §2

sedge, umbrella = assay: Test B flooded paddy test; type: in vivo, Cyperus difformis; details: 250 g ai/ha, Flood, 13 days, 0 to 100 scale (0 no effect, 100 complete control)
In short: as §2

[23] = 125 g ai/ha, visual injury after 10 days, 0 to 100 scale, 0 is no effect, 100 is complete control
[24] = 500 g ai/ha, 0 to 100 scale (0 no effect, 100 complete control), 10 days

Cc1cccc2c1O[C@@H](C)CN2C(=O)c1cccc(-n2cnc(Cl)n2)c1 [Compound 69]
10: Plant response rating, Wheat (wheat [11]; [23]) | Plant response rating, Corn (corn [13]; 125 g ai/ha) | Plant response rating, Wheat (wheat [22])
100: Plant response rating, Goosegrass (goosegrass [4]; [24]) | Plant response rating, Soybean (soybean [21]) | Plant response rating, Galium (galium; 500 g ai/ha)
0: Plant response rating, Ragweed (ragweed [8]; [23]) | Plant response rating, Ragweed (ragweed [8]; [24]) | Plant response rating, Soybean (soybean [10]; [23]) | Plant response rating, Soybean (soybean [10]; [24]) | Plant response rating, Blackgrass (blackgrass [12]; 125 g ai/ha, postemergence, 10 days, visual injury, 0 to 100 scale (0 no effect, 100 complete control)) | Plant response rating, Goosegrass (goosegrass [15]; 125 g ai/ha) | Plant response rating, Horseweed (horseweed; 125 g ai/ha) | Plant response rating, Horseweed (horseweed; 500 g ai/ha) | Plant response rating, Barnyardgrass (barnyardgrass) | Plant response rating, Ducksalad (ducksalad) | Plant response rating, Rice (rice) | Plant response rating, Sedge, Umbrella (sedge, umbrella)
70: Plant response rating, Kochia (kochia [5]; [24]) | Plant response rating, Oat, Wild (oat, wild [6]; [24]) | Plant response rating, Ryegrass, Italian (ryegrass, Italian [20])
20: Plant response rating, Oat, Wild (oat, wild [6]; [23]) | Plant response rating, Pigweed, Palmer (pigweed, palmer [7]; [23]) | Plant response rating, Wheat (wheat [11]; [24]) | Plant response rating, Foxtail, Giant (foxtail, giant [14]; 125 g ai/ha) | Plant response rating, Goosegrass (goosegrass [15]; 500 g ai/ha) | Plant response rating, Kochia (kochia [16]; 125 g ai/ha)
90: Plant response rating, Blackgrass (blackgrass [1]; [24]) | Plant response rating, Foxtail, Giant (foxtail, giant [3]; [23]) | Plant response rating, Foxtail, Giant (foxtail, giant [3]; [24]) | Plant response rating, Goosegrass (goosegrass [4]; [23]) | Plant response rating, Pigweed, Palmer (pigweed, palmer [7]; [24])
60: Plant response rating, Kochia (kochia [5]; [23]) | Plant response rating, Blackgrass (blackgrass [12]; 500 g ai/ha, Postemergence, 0 to 100 scale) | Plant response rating, Kochia (kochia [16]; 500 g ai/ha) | Plant response rating, Galium (galium; 125 g ai/ha)
40: Plant response rating, Blackgrass (blackgrass [1]; [23]) | Plant response rating, Pigweed, Palmer (pigweed, palmer [18])
80: Plant response rating, Ryegrass, Italian (ryegrass, Italian [9]; [23]) | Plant response rating, Ryegrass, Italian (ryegrass, Italian [9]; [24]) | Plant response rating, Foxtail, Giant (foxtail, giant [14]; 500 g ai/ha)
30: Plant response rating, Corn (corn [2]; [23]) | Plant response rating, Corn (corn [2]; [24]) | Plant response rating, Corn (corn [13]; 500 g ai/ha) | Plant response rating, Oat, Wild (oat, wild [17]) | Plant response rating, Ragweed (ragweed [19])
